The record followed here is ChEMBL document CHEMBL1133962, “Bicyclic anti-VZV nucleosides: Thieno analogues retain full antiviral activity” (Bioorg Med Chem Lett, 2001).

Experiment [1] concerns HEL. Put plainly: Antiviral activity was measured as effective concentration required to reduce Varicella Zoster virus (YS)-induced plaque formation in human embryonic lung cells. Type of experiment: functional, cell-based.
Experiment [2] has as its system HEL. Put plainly: Minimal cytotoxic concentration required to alter microscopically detectable cell (of human embryonic lung cells (HEL)) morphology. The format is functional.
Experiment [3] concerns HEL. As to the kind of experiment: Antiviral activity was measured as effective concentration required to reduce Varicella Zoster virus (OKA)-induced plaque formation in human embryonic lung cells. The format is functional, cell-based.
Experiment [4] has as its system HEL. As to the kind of experiment: Cytotoxic concentration required to inhibit growth of human embryonic lung cells (HEL). The format is functional.
Experiment [5] relates to HEL. Put plainly: Antiviral activity was measured as effective concentration required to reduce thymidine kinase-deficient. Varicella Zoster virus (YS/R)-induced plaque formation in human embryonic lung cells. The format is functional, cell-based.
Experiment [6] relates to HEL. As to the kind of experiment: Antiviral activity was measured as effective concentration required to reduce thymidine kinase-deficient. Varicella Zoster virus (07/1)-induced plaque formation in human embryonic lung cells. Type of experiment: functional, cell-based.

pEC50: −log10 of the molar value. Where only a bound is given, the exact number is not on record here.

In general, pEC50 refers to −log10 of the EC50, conventionally taken in molar units. A higher pEC50 goes with a small EC50. In general, CC50 refers to the concentration that lowers cell viability or growth by half. In the case of `CCCCCCCCCCc1cc2cn([C@H]3C[C@H](O)[C@@H](CO)O3)c(=O)nc2o1`, the pEC50 in the experiment with HEL [1] is 8.10; in the experiment with HEL [3], 7.82; with HEL [5], below 4.30; in the experiment with HEL [6], below 4.30. The same compound had an MCC with HEL [2] above 50 µM. The compound further came in with a CC50 in the experiment on HEL [4] above 50000 nM.

Turning to `CCCCCCc1cc2cn([C@H]3C[C@H](O)[C@@H](CO)O3)c(=O)nc2s1`, the negative-log EC50 (pEC50) with HEL [1] was 6.85; in the experiment on HEL [3], 6.85; in the experiment with HEL [5], at most 4.30; in the experiment with HEL [6] it was at most 4.30. This compound returned an MCC in the experiment with HEL [2] of 125 µM. The half-maximal cytotoxic concentration (CC50) with HEL [4] was above 200000 nM.

As to `CCCCCCCCc1cc2cn([C@H]3C[C@H](O)[C@@H](CO)O3)c(=O)nc2s1`, the pEC50 with HEL [1] was 8.30; with HEL [3], 8.70; in the experiment with HEL [5], below 5.30; in the experiment with HEL [6], at most 5.30. In the experiment with HEL [2], this compound came in with an MCC of 20 µM. The CC50 in the experiment with HEL [4] was determined as 53000 nM.

Consider `CCCCCCCCCCCCc1cc2cn([C@H]3C[C@H](O)[C@@H](CO)O3)c(=O)nc2s1`, for which the negative-log EC50 (pEC50) with HEL [1] is 6.52; in the experiment with HEL [3], 6.70; in the experiment with HEL [5] it was below 5.30; in the experiment with HEL [6], below 5.30. For the same compound, the MCC in the experiment on HEL [2] came to 12 µM. In the experiment on HEL [4], this compound came in with a CC50 of 49000 nM.

Regarding `CCCCc1cc2cn([C@H]3C[C@H](O)[C@@H](CO)O3)c(=O)nc2s1`, the pEC50 in the experiment on HEL [1] was 6.82; with HEL [3], 6.80; in the experiment on HEL [5], 3.82; in the experiment on HEL [6] it was at most 3.70. Further, in the experiment with HEL [2], the MCC was at least 100 µM. In addition, in the experiment with HEL [4], the CC50 is above 200000 nM.

As for `Nc1nc2c(ncn2COCCO)c(=O)[nH]1` [ACYCLOVIR], the negative-log EC50 (pEC50) is 5.82 with HEL [1], 5.96 in the experiment with HEL [3], 4.36 in the experiment on HEL [5] and 4.40 with HEL [6]. The compound also showed an MCC in the experiment on HEL [2] above 200 µM. The compound also displayed a 50% cytotoxic concentration (CC50) in the experiment on HEL [4] above 400000 nM.

With `CCCCCCCCCc1cc2cn([C@H]3C[C@H](O)[C@@H](CO)O3)c(=O)nc2s1`, the negative logarithm of the EC50 (pEC50) with HEL [1] is 8.00; in the experiment with HEL [3], 8.00; in the experiment with HEL [5], below 4.70; in the experiment with HEL [6], below 4.70. Besides, the MCC in the experiment on HEL [2] was above 20 µM. This compound displayed a cytotoxic concentration (CC50) in the experiment with HEL [4] above 20000 nM.

As to `CCCCCCCCCCc1cc2cn([C@H]3C[C@H](O)[C@@H](CO)O3)c(=O)nc2s1`, the pEC50 is 7.22 with HEL [1], 7.52 in the experiment with HEL [3], below 5.30 with HEL [5] and below 5.30 in the experiment on HEL [6]. The same compound gave an MCC with HEL [2] of 20 µM. Also, in the experiment with HEL [4], the CC50 stood at 54000 nM.
